35 molecules from patent US8569484B2, “Heterocyclic urea derivatives and methods of use thereof” (Astrazeneca AB, priority 2009, dated 2013) can be followed below.

Chain of S. aureus GyrB ATPase (P0AES4 whole entry): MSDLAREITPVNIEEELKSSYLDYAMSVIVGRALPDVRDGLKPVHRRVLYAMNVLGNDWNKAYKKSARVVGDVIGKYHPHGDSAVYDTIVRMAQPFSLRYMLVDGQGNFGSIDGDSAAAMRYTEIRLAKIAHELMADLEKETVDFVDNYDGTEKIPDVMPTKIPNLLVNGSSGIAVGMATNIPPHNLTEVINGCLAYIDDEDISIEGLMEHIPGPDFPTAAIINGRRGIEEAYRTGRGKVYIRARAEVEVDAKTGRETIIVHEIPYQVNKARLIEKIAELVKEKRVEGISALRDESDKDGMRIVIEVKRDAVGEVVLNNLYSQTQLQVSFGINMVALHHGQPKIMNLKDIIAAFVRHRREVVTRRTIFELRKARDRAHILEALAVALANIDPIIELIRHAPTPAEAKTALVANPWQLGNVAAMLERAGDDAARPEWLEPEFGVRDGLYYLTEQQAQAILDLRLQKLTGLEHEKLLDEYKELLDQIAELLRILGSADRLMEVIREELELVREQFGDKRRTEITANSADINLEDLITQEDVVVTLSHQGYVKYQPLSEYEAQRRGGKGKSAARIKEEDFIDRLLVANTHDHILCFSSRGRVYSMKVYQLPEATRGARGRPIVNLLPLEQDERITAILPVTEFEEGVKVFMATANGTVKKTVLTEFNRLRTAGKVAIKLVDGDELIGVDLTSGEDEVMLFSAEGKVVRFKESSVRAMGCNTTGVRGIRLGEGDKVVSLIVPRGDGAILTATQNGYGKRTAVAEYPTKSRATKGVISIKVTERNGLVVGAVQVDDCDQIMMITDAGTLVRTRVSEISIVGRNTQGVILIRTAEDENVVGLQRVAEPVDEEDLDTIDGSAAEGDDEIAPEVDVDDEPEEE
Chain of S. aureus GyrB ATPase (P0A0K8 whole entry): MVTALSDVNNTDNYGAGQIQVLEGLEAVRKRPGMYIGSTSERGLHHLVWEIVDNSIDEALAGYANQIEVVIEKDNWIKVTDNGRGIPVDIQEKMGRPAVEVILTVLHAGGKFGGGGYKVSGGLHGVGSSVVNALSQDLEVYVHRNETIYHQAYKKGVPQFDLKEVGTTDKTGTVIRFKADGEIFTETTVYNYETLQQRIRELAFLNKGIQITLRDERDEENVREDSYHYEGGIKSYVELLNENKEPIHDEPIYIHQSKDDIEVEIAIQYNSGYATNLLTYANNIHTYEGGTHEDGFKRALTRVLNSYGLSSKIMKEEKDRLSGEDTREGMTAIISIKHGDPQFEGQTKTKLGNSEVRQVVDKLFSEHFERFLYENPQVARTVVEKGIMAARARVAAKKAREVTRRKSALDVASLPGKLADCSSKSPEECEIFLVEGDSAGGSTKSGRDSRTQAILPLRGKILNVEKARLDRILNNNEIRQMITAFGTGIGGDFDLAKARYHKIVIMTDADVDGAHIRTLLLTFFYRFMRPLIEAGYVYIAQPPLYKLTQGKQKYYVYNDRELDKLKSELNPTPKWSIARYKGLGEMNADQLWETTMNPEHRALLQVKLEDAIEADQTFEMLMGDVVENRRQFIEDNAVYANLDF

The first experiment concerns the target S. aureus GyrB ATPase (Staphylococcus aureus, UniProt P0A0K8). Kind of experiment: S. aureus GyrB ATPase inhibition (ammonium molybdate/malachite green phosphate detection). The note with it: 1 μM compound; S. aureus GyrB ATPase; read-out: Percent Inhibition (1 μM). The format is biochemical. As for the experimental part:
S. aureus GyrB ATPase Inhibition Activity: Compounds may be tested for inhibition of S. aureus GyrB ATPase activity using an ammonium molybdate/malachite green-based phosphate detection assay (Lanzetta, P. A., L. J. Alvarez, P. S. Reinach, and O. A. Candia, 1979, 100: 95-97). Assays can be performed in multiwell plates in 30 μl reactions containing: 50 mM Hepes buffer pH 7.5, 75 mM ammonium acetate, 8.0 mM magnesium chloride, 0.5 mM ethylenediaminetetraacetic acid, 5% glycerol, 1.0 mM 1,4-Dithio-DL-threitol, 200 nM bovine serum albumin, 1.0 μg/ml sheared salmon sperm DNA, 250 pM E. coli GyrA, 250 pM S. aureus GyrB, 250 μM ATP, and compound in dimethylsulfoxide. Reactions can be quenched with 30 μl of ammonium molybdate/malachite green detection reagent containing 1.2 mM malachite green hydrochloride, 8.5 mM ammonium molybdate tetrahydrate, and 1 M hydrochloric acid. Plates can be read in an absorbance plate reader at 650 nm and percent inhibition values can be calculated using dimethylsulfoxide (2%)-containing reactions as 0% inhibition and EDTA-containing ([…]) reactions as 100% inhibition controls. An IC50 measurement of compound potency for each compound can be determined from reactions performed in the presence of 10 different compound concentrations.
As for `CCNC(=O)Nc1cc(-c2nc(C(F)(F)F)cs2)c(-c2cnc3c(c2)c(=O)c(C(=O)O)cn3CC)cn1` [Example 8, 1-Ethyl-6-{6-[(ethylcarbamoyl)amino]-4-[4-(trifluoromethyl)-1,3-thiazol-2-yl]pyridin-3-yl}-4-oxo-1,4-dihydro-1,8-naphthyridine-3-carboxylic acid], the inhibition at 1 µM was found to be 98%.
Same read-out and setting: for `CCNC(=O)Nc1cc(-c2nc(C(F)(F)F)cs2)c(-c2cnc3c(c2)c(=O)c(C(=O)O)cn3CCC2CCN(C)CC2)cn1` [Example 2, 6-(6-(3-ethylureido)-4-(4-(trifluoromethyl)thiazol-2-yl)pyridin-3-yl)-1-(2-(1-methylpiperidin-4-yl)ethyl)-4-oxo-1,4-dihydro-1,8-naphthyridine-3-carboxylic acid] the value was 123%.
On the same count and under the same terms, for `CCNC(=O)Nc1cc(-c2nc(C(F)(F)F)cs2)c(-c2cnc3c(c2)c(=O)c(C(=O)O)cn3C[C@H]2CCCN2CC)cn1` [Example 33] the value was 102%; for `CCNC(=O)Nc1cc(-c2nc(C(F)(F)F)cs2)c(-c2cc3c(=O)c(C(=O)O)cn(C[C@H]4CCCN4CC)c3cn2)cn1` [Example 41], 102%; for `CCNC(=O)Nc1cc(-c2nc(C(F)(F)F)cs2)c(-c2cnc3c(c2)c(=O)c(C(=O)O)cn3C(COC)COC)cn1` [Example 55], 103%.
As for `CCNC(=O)Nc1cc(-c2nc(C(F)(F)F)cs2)c(-c2cnc3c(c2)c(=O)c(C(=O)O)cn3C2CN(C)C2)cn1` [Example 57], the inhibition at 1 µM amounted to 107%.
`CCNC(=O)Nc1cc(-c2nc(C(F)(F)F)cs2)c(-c2cc3c(=O)c(C(=O)O)cn(Cc4cn(C)cn4)c3cn2)cn1` [Example 50]: the inhibition at 1 µM worked out at 99%.
With `CCNC(=O)Nc1cc(-c2nc(-c3cnn(C)c3)cs2)c(-c2cc3c(=O)c(C(=O)O)cn(C4CC4)c3cn2)cn1` [Example 75], the inhibition at 1 µM is 108%.
With `CCCN1CC[C@H](Cn2cc(C(=O)O)c(=O)c3cc(-c4cnc(NC(=O)NCC)cc4-c4nc(C(F)(F)F)cs4)ncc32)C1` [Example 73], the inhibition at 1 µM was found to be 108%.
On to `CCNC(=O)Nc1cc(-c2nc(C(F)(F)F)cs2)c(-c2cc3c(=O)c(C(=O)O)cn(C4CN(C)C4)c3cn2)cn1` [Example 70], for which the inhibition at 1 µM was found to be 102%.
The same measure, in the same setting: next, `CCNC(=O)Nc1cc(-c2nc(C(F)(F)F)cs2)c(-c2cc3c(=O)c(C(=O)O)cn(C(C)(C)C)c3cn2)cn1` [Example 66]: 106%; `CCNC(=O)Nc1cc(-c2nc(CC(C)C)cs2)c(-c2cnc3c(c2)c(=O)c(C(=O)O)cn3[C@H]2CCCN(CCN(CC)CC)C2)cn1` [Example 34, (S)-1-(1-(2-(diethylamino)ethyl)piperidin-3-yl)-6-(6-(3-ethylureido)-4-(4-isobutylthiazol-2-yl)pyridin-3-yl)-4-oxo-1,4-dihydro-1,8-naphthyridine-3-carboxylic acid]: 103%.
The same measure, in the same setting: for `CCNC(=O)Nc1cc(-c2nc(C(F)(F)F)cs2)c(-c2cnc3c(c2)c(=O)c(C(=O)O)cn3[C@H](CO)C(C)(C)C)cn1` [Example 12, 6-{6-[(ethylcarbamoyl)amino]-4-[4-(trifluoromethyl)-1,3-thiazol-2-yl]pyridin-3-yl}-1-[(2S)-1-hydroxy-3,3-dimethylbutan-2-yl]-4-oxo-1,4-dihydro-1,8-naphthyridine-3-carboxylic acid] the value was 104%; for `CCNC(=O)Nc1cc(-c2nc(C(F)(F)F)cs2)c(-c2cc3c(=O)c(C(=O)O)cn(C[C@@H]4CCN(CC)C4)c3cn2)cn1` [Example 74], 100%; for `CCNC(=O)Nc1cc(-c2nc(C(F)(F)F)cs2)c(-c2cc3c(=O)c(C(=O)O)cn(CC)c3nc2NCCN(C)C)cn1` [Example 37, 7-(2-(dimethylamino)ethylamino)-1-ethyl-6-(6-(3-ethylureido)-4-(4-(trifluoromethyl)thiazol-2-yl)pyridin-3-yl)-4-oxo-1,4-dihydro-1,8-naphthyridine-3-carboxylic acid], 109%.
As for `CCNC(=O)Nc1cc(-c2nc(C(F)(F)F)cs2)c(-c2cc3c(=O)c(C(=O)O)cn(CCOC)c3cn2)cn1` [Example 46], the inhibition at 1 µM came out at 106%.
Same read-out and setting: for `CCNC(=O)Nc1cc(-c2nc(-c3ccccc3)cs2)c(-c2cc3c(=O)c(C(=O)O)cn(Cc4cn(C)cn4)c3cn2)cn1` [Example 65] the value was 98%; for `CCNC(=O)Nc1cc(-c2nc(C(F)(F)F)cs2)c(-c2cnc3c(c2)c(=O)c(C(=O)OCCCOP(=O)(O)O)cn3CC)cn1` [Example 22, 3-(Phosphonooxy)propyl 1-ethyl-6-{6-[(ethylcarbamoyl)amino]-4-[4-(trifluoromethyl)-1,3-thiazol-2-yl]pyridin-3-yl}-4-oxo-1,4-dihydro-1,8-naphthyridine-3-carboxylate], 104%.
Turning to `CCNC(=O)Nc1cc(-c2nc(C(F)(F)F)cs2)c(-c2cc3c(=O)c(C(=O)O)cn(Cc4ccncc4)c3cn2)cn1` [Example 72], the inhibition at 1 µM came out at 105%.
On the same count and under the same terms, for `CCNC(=O)Nc1cc(-c2nc(C(F)(F)F)cs2)c(-c2cc3c(=O)c(C(=O)O)cn(C[C@@H]4CCCN4CC)c3cn2)cn1` [Example 42] the value was 103%.
On to `CCNC(=O)Nc1cc(-c2nc(C(F)(F)F)cs2)c(-c2cc3c(=O)c(C(=O)O)cn([C@H](CO)C(C)(C)C)c3cn2)cn1` [Example 71], for which the inhibition at 1 µM is 103%.
Still for that read-out and setting: for `CCNC(=O)Nc1cc(-c2nc(C(F)(F)F)cs2)c(-c2cnc3c(c2)c(=O)c(C(=O)O)cn3CCOP(=O)(O)O)cn1` [Example 14, 6-{6-[(ethylcarbamoyl)amino]-4-[4-(trifluoromethyl)-1,3-thiazol-2-yl]pyridin-3-yl}-4-oxo-1-[2-(phosphonooxy)ethyl]-1,4-dihydro-1,8-naphthyridine-3-carboxylic acid] the value was 103%; for `CCNC(=O)Nc1cc(-c2nc(C(F)(F)F)cs2)c(-c2cc3c(=O)c(C(=O)O)cn(CCC(C)(C)C)c3cn2)cn1` [Example 40], 103%.
Same read-out and setting: for `CCNC(=O)Nc1cc(-c2nc(-c3ccccc3)cs2)c(-c2cnc3c(c2)c(=O)c(C(=O)O)cn3[C@H]2CCCN(CCN(CC)CC)C2)cn1` [Example 35] the value was 102%.
For the molecule `CCNC(=O)Nc1cc(-c2nc(C(F)(F)F)cs2)c(-c2cc3c(=O)c(C(=O)O)cn(CCN4CCOCC4)c3cn2)cn1` [Example 69], the inhibition at 1 µM was determined as 103%.
The same measure, in the same setting: for `CCNC(=O)Nc1cc(-c2nc(C(F)(F)F)cs2)c(-c2cc3c(=O)c(C(=O)O)cn(CCN4CCN(C)CC4)c3nc2N2CC[C@@H](CN)C2)cn1` [Example 60] the value was 101%; for `CCNC(=O)Nc1cc(-c2nc(C(F)(F)F)cs2)c(-c2cc3c(=O)c(C(=O)O)cn([C@@H]4CCCN(CCN5CCOCC5)C4)c3cn2)cn1` [Example 49], 98%; for `CCNC(=O)Nc1cc(-c2nc(C(F)(F)F)cs2)c(-c2cnc3c(c2)c(=O)c(C(=O)O)cn3[C@H](CO)CC(C)C)cn1` [Example 11, 6-{6-[(ethylcarbamoyl)amino]-4-[4-(trifluoromethyl)-1,3-thiazol-2-yl]pyridin-3-yl}-1-[(2S)-1-hydroxy-4-methylpentan-2-yl]-4-oxo-1,4-dihydro-1,8-naphthyridine-3-carboxylic acid], 104%.
Same read-out and setting: for `CCNC(=O)Nc1cc(-c2nc(C(F)(F)F)cs2)c(-c2cnc3c(c2)c(=O)c(C(=O)O)cn3[C@@H]2CCCN(CCN(CC)CC)C2)cn1` [Example 54] the value was 106%; for `CCNC(=O)Nc1cc(-c2nc(-c3cnn(C)c3)cs2)c(-c2cc3c(=O)c(C(=O)O)cn(Cc4cn(C)cn4)c3cn2)cn1` [Example 76, 6-(6-(3-ethylureido)-4-(4-(1-methyl-1H-pyrazol-4-yl)thiazol-2-yl)pyridin-3-yl)-1-((1-methyl-1H-imidazol-4-yl)methyl)-4-oxo-1,4-dihydro-1,7-naphthyridine-3-carboxylic acid], 109%.
For the molecule `CCNC(=O)Nc1cc(-c2nc(C(F)(F)F)cs2)c(-c2cnc3c(c2)c(=O)c(C(=O)O)cn3CCN2CCOCC2)cn1` [Example 56], the inhibition at 1 µM was 101%.
In the case of `CCNC(=O)Nc1cc(-c2nc(C(F)(F)F)cs2)c(-c2cc3c(=O)c(C(=O)O)cn(C[C@@H]4CCCN4CC)c3nc2NCCN(C)C)cn1` [Example 36, 7-(2-(dimethylamino)ethylamino)-1-(((S)-1-ethylpyrrolidin-2-yl)methyl)-6-(6-(3-ethylureido)-4-(4-(trifluoromethyl)thiazol-2-yl)pyridin-3-yl)-4-oxo-1,4-dihydro-1,8-naphthyridine-3-carboxylic acid], the inhibition at 1 µM was 100%.
Turning to `CCNC(=O)Nc1cc(-c2nc(C(F)(F)F)cs2)c(-c2cc3c(=O)c(C(=O)O)cn(Cc4cnn(C)c4)c3cn2)cn1` [Example 51, 6-(6-(3-ethylureido)-4-(4-(trifluoromethyl)thiazol-2-yl)pyridin-3-yl)-1-((1-methyl-1H-pyrazol-4-yl)methyl)-4-oxo-1,4-dihydro-1,7-naphthyridine-3-carboxylic acid], the inhibition at 1 µM came to 102%.
Turning to `CCNC(=O)Nc1cc(-c2nc(C(F)(F)F)cs2)c(-c2cc3c(=O)c(C(=O)O)cn(CCN4CCN(C)CC4)c3nc2N2CC[C@H](N)C2)cn1` [Example 61], the inhibition at 1 µM came out at 103%.

Staying with this experiment, now noted: read-out: Percent Inhibition (1 μM).
Consider `CCNC(=O)Nc1cc(-c2nc(C(F)(F)F)cs2)c(-c2cnc3c(c2)c(=O)c(C(=O)O)cn3[C@@H]2CCCN(CCN3CCOCC3)C2)cn1` [Example 29], for which the inhibition at 1 µM was determined as 105%.

The inhibition is the relative decrease from the control value, in per cent.
